# What was measured:
# HSP70 = target: T1, HSP70 (Homo sapiens, UniProt P0DMV8); test: DARTS in Jurkat lysate and living cells at […] (MS and western blot); pull-down with immobilized oridonin; type: cell-based
# T1 construct: gene HSPA1A
# Nucleolin = target: T2, Nucleolin (Homo sapiens, UniProt P19338); test: SPR (Biacore […], immobilized Nucleolin on CM5 chip); supported by CETSA, DARTS and affinity pull-down; type: binding
# T2 construct: gene NCL; Recombinant human Nucleolin
# T2 sequence (P19338 2-710): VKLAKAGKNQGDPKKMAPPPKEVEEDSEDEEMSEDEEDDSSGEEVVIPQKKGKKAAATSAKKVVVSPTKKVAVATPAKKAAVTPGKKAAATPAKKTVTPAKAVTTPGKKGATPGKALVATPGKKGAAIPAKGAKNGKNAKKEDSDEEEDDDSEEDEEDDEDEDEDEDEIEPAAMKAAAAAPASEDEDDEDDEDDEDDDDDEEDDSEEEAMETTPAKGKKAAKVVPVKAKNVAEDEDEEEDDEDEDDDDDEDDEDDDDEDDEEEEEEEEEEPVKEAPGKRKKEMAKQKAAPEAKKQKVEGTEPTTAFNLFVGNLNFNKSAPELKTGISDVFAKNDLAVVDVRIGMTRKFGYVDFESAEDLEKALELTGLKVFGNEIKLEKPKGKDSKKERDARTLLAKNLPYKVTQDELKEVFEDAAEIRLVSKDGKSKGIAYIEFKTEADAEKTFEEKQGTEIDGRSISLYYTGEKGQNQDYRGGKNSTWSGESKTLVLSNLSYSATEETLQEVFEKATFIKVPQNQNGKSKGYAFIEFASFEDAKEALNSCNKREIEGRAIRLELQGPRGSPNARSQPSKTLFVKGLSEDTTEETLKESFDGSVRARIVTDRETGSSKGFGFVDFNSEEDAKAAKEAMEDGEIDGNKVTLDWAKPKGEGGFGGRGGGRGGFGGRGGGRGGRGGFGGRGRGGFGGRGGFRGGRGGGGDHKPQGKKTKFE
# T1 sequence (P0DMV8 2-641): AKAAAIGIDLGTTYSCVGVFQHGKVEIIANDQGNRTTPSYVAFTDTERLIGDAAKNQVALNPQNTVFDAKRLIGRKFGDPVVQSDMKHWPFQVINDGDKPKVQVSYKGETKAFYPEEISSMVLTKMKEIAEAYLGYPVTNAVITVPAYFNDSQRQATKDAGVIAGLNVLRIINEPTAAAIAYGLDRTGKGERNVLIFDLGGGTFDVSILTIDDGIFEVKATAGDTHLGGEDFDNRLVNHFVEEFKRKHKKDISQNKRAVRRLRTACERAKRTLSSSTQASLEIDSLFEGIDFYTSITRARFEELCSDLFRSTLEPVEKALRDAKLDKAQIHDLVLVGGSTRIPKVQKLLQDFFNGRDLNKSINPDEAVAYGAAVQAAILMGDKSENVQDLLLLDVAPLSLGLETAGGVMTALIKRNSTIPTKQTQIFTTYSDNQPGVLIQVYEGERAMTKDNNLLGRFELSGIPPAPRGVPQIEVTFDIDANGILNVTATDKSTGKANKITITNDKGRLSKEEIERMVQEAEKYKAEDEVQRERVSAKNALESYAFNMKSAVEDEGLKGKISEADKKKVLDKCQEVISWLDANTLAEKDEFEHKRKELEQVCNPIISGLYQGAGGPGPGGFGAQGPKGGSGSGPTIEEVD
smiles,measurement,setting,value
C=C1C(=O)[C@]23[C@H](O)[C@H]1CC[C@H]2[C@@]12CO[C@]3(O)[C@@H](O)[C@@H]1C(C)(C)CC[C@@H]2O [oridonin],DARTS in Jurkat lysate and living cells at 5 μM (MS and western blot); pull-down,HSP70,"only three proteins emerged as putative oridonin targets: HSP70, HSP90, and Nucleolin"
same,Kd,Nucleolin,3.8 ± 1.2 nM

# Source: PMC6233161, “The anti-tumor diterpene oridonin is a direct inhibitor of Nucleolin in cancer cells” (Scientific Reports, 2018)
